Columns and labels:
[1] = system: CMK; assay: MTT cell proliferation assay, control cells; format: cell-based, human; settings: control cells (CMK negative control), 48 hour MTT
[2] = system: STAT5 and ERK; assay: Western blot of downstream target phosphorylation in MKPL-1 cells; format: cell-based, human; settings: Imatinib

Cc1ccc(NC(=O)c2ccc(CN3CCN(C)CC3)cc2)cc1Nc1nccc(-c2cccnc2)n1 [Imatinib]
inhibition of cell growth [1]: the control cells are not
phosphorylation of downstream target STAT5 and ERK [2]: inhibited as well
